Our source for the IC50 values is patent US8962608B2, “Cycloalkylnitrile pyrazole carboxamides as janus kinase inhibitors” (Merck Sharp & Dohme Corp., priority 2011, dated 2015).

For assay [1], the target named is T1, JAK1 (recombinant purified GST-tagged catalytic domain) (Homo sapiens (Human), UniProt P23458).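 Also: biochemical assay with HTRF read-out.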
Assay [2] addresses JAK2 (recombinant purified GST-tagged catalytic domain) (Homo sapiens (Human), UniProt O60674). The experiment in a line: biochemical.
Assay [3] deals with T1, JAK1 (recombinant purified GST-tagged catalytic domain). Briefly: biochemical.

Structures can show the parent of a compound that is named as a salt. Where two headings read alike, the source gives them in different places.

T1 sequence (P23458 875-1153): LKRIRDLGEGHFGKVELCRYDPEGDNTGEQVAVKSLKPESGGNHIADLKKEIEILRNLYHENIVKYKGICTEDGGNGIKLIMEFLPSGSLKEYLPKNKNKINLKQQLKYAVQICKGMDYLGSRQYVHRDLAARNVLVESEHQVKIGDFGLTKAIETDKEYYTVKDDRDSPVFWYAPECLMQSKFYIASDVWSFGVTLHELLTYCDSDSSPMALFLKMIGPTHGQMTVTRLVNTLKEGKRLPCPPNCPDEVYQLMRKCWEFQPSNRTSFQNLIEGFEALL
Chain of JAK2 (recombinant purified GST-tagged catalytic domain) (O60674 849-1124): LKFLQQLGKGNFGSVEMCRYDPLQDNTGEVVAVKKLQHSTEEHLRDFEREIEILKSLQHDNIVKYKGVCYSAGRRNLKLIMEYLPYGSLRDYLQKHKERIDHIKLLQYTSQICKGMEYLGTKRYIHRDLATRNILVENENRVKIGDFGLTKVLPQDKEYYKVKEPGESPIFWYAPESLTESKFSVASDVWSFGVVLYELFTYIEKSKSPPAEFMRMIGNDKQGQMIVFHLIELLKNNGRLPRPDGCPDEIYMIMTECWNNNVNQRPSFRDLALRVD

As usually defined, the IC50 is the point on the concentration scale where inhibition reaches its midpoint. In the case of `CN(C)[C@H]1CC[C@H](n2cc(C(N)=O)c(Nc3ccc(S(=O)(=O)C(F)(F)F)cc3)n2)[C@@H](C#N)C1` (mixture of isomers) [Example 27-1, 1-[(1S,3S,4S and 1R,3R,4R)-4-[4-carbamoyl-3-({4-[(trifluoromethyl)sulfonyl]phenyl}amino)-1H-pyrazol-1-yl]-3-cyano-N,N-dimethylcyclohexanaminium trifluoroacetate], the 50% inhibitory concentration (IC50) in assay [1] came to 0.2 nM.
Take `N#C[C@H]1C[C@@H](C(=O)NC2COC2)CC[C@@H]1n1cc(C(N)=O)c(Nc2ccc(Cl)cc2)n1` (single isomer, unassigned) [Example 35-7, 3-[(4-chlorophenyl)amino]-1-[(1S,2S,4S or 1R,2R,4R)-2-cyano-4-(oxetan-3-ylcarbamoyl)cyclohexyl]-1H-pyrazole-4-carboxamide]: the IC50 is 243 nM in assay [2] and 33 nM in assay [3].
For the compound `CS(=O)(=O)C1CN(C(=O)[C@@H]2CC[C@@H](n3cc(C(N)=O)c(Nc4ccc(Cl)cc4)n3)[C@H](C#N)C2)C1` (single isomer, unassigned) [Example 35-8, 3-[(4-chlorophenyl)amino]-1-[(1R,2R,4R or 1S,2S,4S)-2-cyano-4-{[3-(methylsulfonyl)azetidin-1-yl]carbonyl}cyclohexyl]-1H-pyrazole-4-carboxamide], the IC50 is 19 nM in assay [2] and 3 nM in assay [3].
Consider `CC(C)(O)C1CN(C(=O)[C@H]2CC[C@H](n3cc(C(N)=O)c(Nc4ccc(Cl)cc4)n3)[C@@H](C#N)C2)C1` (single isomer, unassigned) [Example 35-9, 3-[(4-chlorophenyl)amino]-1-[(1S,2S,4S or 1R,2R,4R)-2-cyano-4-{[3-(1-hydroxy-1-methylethyl)azetidin-1-yl]carbonyl}cyclohexyl}-1H-pyrazole-4-carboxamide], for which the figures for the IC50 in assay [2] and in assay [3] were 315 nM and 30 nM, respectively.
In the case of `N#C[C@@H]1C[C@H](C(=O)NCC(F)(F)F)CCC1n1cc(C(N)=O)c(Nc2ccc(Cl)cc2)n1` (single isomer, unassigned) [Example 35-10, 3-[(4-chlorophenyl)amino]-1-{(1R,2R,4R or 1S,2S,4S)-2-cyano-4-[(2,2,2-trifluoroethyl)carbamoyl]cyclohexyl}-1H-pyrazole-4-carboxamide], the IC50 worked out at 38 nM in assay [2] and 3 nM in assay [3].
In the same order, the values of `N#C[C@@H]1C[C@H](C(=O)NC2COC2)CC[C@H]1n1cc(C(N)=O)c(Nc2ccc(Cl)cc2)n1` (single isomer, unassigned) [Example 35-13, 3-[(4-chlorophenyl)amino]-1-[(1R,2R,4R or 1S,2S,4S)-2-cyano-4-(oxetan-3-ylcarbamoyl)cyclohexyl]-1H-pyrazole-4-carboxamide] are 38 nM and 5 nM.
Taken in the same sequence, the figures for `N#C[C@@H]1C[C@H](C(=O)NC2CC(F)(F)C2)CC[C@H]1n1cc(C(N)=O)c(Nc2ccc(Cl)cc2)n1` (single isomer, unassigned) [Example 35-18, 3-[(4-chlorophenyl)amino]-1-{(1R,2R,4R or 1S,2S,4S)-2-cyano-4-[(3,3-difluorocyclobutyl)carbamoyl]cyclohexyl}-1H-pyrazole-4-carboxamide] were 136 nM and 13 nM.
For `N#C[C@@H]1C[C@H](C(=O)NC2CC2)CC[C@H]1n1cc(C(N)=O)c(Nc2ccc(Cl)cc2)n1` (single isomer, unassigned) [Example 35-19, 3-[(4-chlorophenyl)amino]-1-[(1R,2R,4R or 1S,2S,4S)-2-cyano-4-(cyclopropylcarbamoyl)cyclohexyl]-1H-pyrazole-4-carboxamide], the IC50 in assay [2] was 23 nM; in assay [3], 5 nM.
Take `N#C[C@H]1C[C@@H](C(=O)NC2CC(F)(F)C2)CC[C@@H]1n1cc(C(N)=O)c(Nc2ccc(Cl)cc2)n1` (single isomer, unassigned) [Example 35-20, 3-[(4-chlorophenyl)amino]-1-{(1S,2S,4S or 1R,2R,4R)-2-cyano-4-[(3,3-difluorocyclobutyl)carbamoyl]cyclohexyl}-1H-pyrazole-4-carboxamide]: the IC50 stood at 172 nM in assay [2] and 21 nM in assay [3].
Consider `N#C[C@H]1C[C@@H](C(=O)NC(C2CC2)C2CC2)CC[C@@H]1n1cc(C(N)=O)c(Nc2ccc(Cl)cc2)n1` (single isomer, unassigned) [Example 35-21, 3-[(4-chlorophenyl)amino]-1-{(1S,2S,4S or 1R,2R,4R)-2-cyano-4-[(dicyclopropylmethyl)carbamoyl]cyclohexyl}-1H-pyrazole-4-carboxamide], for which the IC50 came out at 500 nM in assay [2] and 25 nM in assay [3].
Taken in the same sequence, the figures for `N#C[C@H]1C[C@@H](C(=O)NCC(F)(F)F)CC[C@@H]1n1cc(C(N)=O)c(Nc2ccc(Cl)cc2)n1` (single isomer, unassigned) [Example 35-22, 3-[(4-chlorophenyl)amino]-1-{(1S,2S,4S or 1R,2R,4R)-2-cyano-4-[(2,2,2-trifluoroethyl)carbamoyl]cyclohexyl}-1H-pyrazole-4-carboxamide] were 218 nM and 7 nM.
With `N#C[C@H]1C[C@@H](C(=O)NC2CC2)CC[C@@H]1n1cc(C(N)=O)c(Nc2ccc(Cl)cc2)n1` (single isomer, unassigned) [Example 35-23, 3-[(4-chlorophenyl)amino]-1-[(1S,2S,4S or 1R,2R,4R)-2-cyano-4-(cyclopropylcarbamoyl)cyclohexyl]-1H-pyrazole-4-carboxamide], the IC50 in assay [2] was 295 nM; in assay [3], 37 nM.
As to `CS(=O)(=O)C1CN(C(=O)[C@H]2CC[C@H](n3cc(C(N)=O)c(Nc4ccc(Cl)cc4)n3)[C@@H](C#N)C2)C1` (single isomer, unassigned) [Example 35-26, 3-[(4-chlorophenyl)amino]-1-[(1S,2S,4S or 1R,2R,4R)-2-cyano-4-{[3-(methylsulfonyl)azetidin-1-yl]carbonyl}cyclohexyl]-1H-pyrazole-4-carboxamide], the IC50 turned out to be 49 nM in assay [2] and 2 nM in assay [3].
In the case of `CC1(O)CN(C(=O)[C@@H]2CC[C@@H](n3cc(C(N)=O)c(Nc4ccc(Cl)cc4)n3)[C@H](C#N)C2)C1` (single isomer, unassigned) [Example 35-27, 3-[(4-chlorophenyl)amino]-1-{(1R,2R,4R or 1S,2S,4S)-2-cyano-4 [(3-hydroxy-3-methylazetidin-1-yl)carbonyl]cyclohexyl}-1H-pyrazole-4-carboxamide], the concentration for half-maximal inhibition (IC50) in assay [2] worked out at 35 nM; in assay [3] it was 5 nM.
For the compound `CC1(O)CN(C(=O)[C@H]2CC[C@H](n3cc(C(N)=O)c(Nc4ccc(Cl)cc4)n3)[C@@H](C#N)C2)C1` (single isomer, unassigned) [Example 35-30, 3-[(4-chlorophenyl)amino]-1-{(1S,2S,4S or 1R,2R,4R)-2-cyano-4-[(3-hydroxy-3-methylazetidin-1-yl)carbonyl]cyclohexyl}-1H-pyrazole-4-carboxamide], the 50% inhibitory concentration (IC50) is 180 nM in assay [2] and 10 nM in assay [3].
As for `CC(C)(C)NC(=O)[C@@H]1CC[C@@H](n2cc(C(N)=O)c(Nc3ccc(Cl)cc3)n2)[C@H](C#N)C1` (single isomer, unassigned) [Example 35-35, 1-[(1R,2R,4R or 1S,2S,4S)-4-(tert-butylcarbamoyl)-2-cyanocyclohexyl] 3-[(4-chlorophenyl)amino]-1H-pyrazole-4-carboxamide], the figures for the concentration for half-maximal inhibition (IC50) in assay [2] and in assay [3] were 425 nM and 47 nM, respectively.
As for `N#C[C@@H]1C[C@H](C(=O)N2CC3(COC3)C2)CC[C@H]1n1cc(C(N)=O)c(Nc2ccc(Cl)cc2)n1` (single isomer, unassigned) [Example 35-36, 3-[(4-chlorophenyl)amino]-1-[(1R,2R,4R or 1S,2S,4S)-2-cyano-4-(2-oxa-6-azaspiro[3.3]hept-6-ylcarbonyl)cyclohexyl]-1H-pyrazole-4-carboxamide], the figures for the IC50 in assay [2] and in assay [3] were 111 nM and 10 nM, respectively.
On to `N#C[C@H]1C[C@@H](C(=O)N2CC3(COC3)C2)CC[C@@H]1n1cc(C(N)=O)c(Nc2ccc(Cl)cc2)n1` (single isomer, unassigned) [Example 35-37, 3-[(4-chlorophenyl)amino]-1-[(1S,2S,4S or 1R,2R,4R)-2-cyano-4-(2-oxa-6-azaspiro[3.3]hept-6-ylcarbonyl)cyclohexyl]-1H-pyrazole-4-carboxamide], for which the 50% inhibitory concentration (IC50) was above 500 nM in assay [2] and 43 nM in assay [3].
`CC(C)(O)[C@H]1CC[C@H](n2cc(C(N)=O)c(Nc3ccc(Cl)cc3)n2)[C@@H](C#N)C1` (single isomer, unassigned) [Example 36-1, 3-(4-chlorophenylamino)-1-((1S,2S,4S or 1R,2R,4R)-2-cyano-4-(2-hydroxypropan-2-yl)cyclohexyl)-1H-pyrazole-4-carboxamide]: the figures for the IC50 in assay [2] and in assay [3] were 4 nM and 0.65 nM, respectively.
For the compound `CC(C)(O)[C@H]1CC[C@H](n2cc(C(N)=O)c(Nc3ccc(Cl)cc3)n2)[C@@H](C#N)C1` (single isomer, unassigned) [Example 36-2, 3-(4-chlorophenylamino)-1-((1R,2R,4R or 1S,2S,4S)-2-cyano-4-(2-hydroxypropan-2-yl)cyclohexyl)-1H-pyrazole-4-carboxamide], the figures for the IC50 in assay [2] and in assay [3] were 20 nM and 3 nM, respectively.
`CO/N=C(\C)c1ccc(Nc2nn([C@H]3CCCC[C@@H]3C#N)cc2C(N)=O)cc1` (single isomer, unassigned) [Example 40, 1-[(1S,2S or 1R,2R)-2-Cyanocyclohexyl]-3-{[4-(N-methoxyethanimidoyl)phenyl]amino}-1H-pyrazole-4-carboxamide]: the IC50 in assay [2] was 2 nM; in assay [3], 0.35 nM.
For the compound `CC(=O)O[C@H]1C[C@H](C#N)[C@@H](n2cc(C(N)=O)c(Nc3ccc(C(F)(F)F)cc3)n2)C[C@@H]1O` [Example 41], the IC50 worked out at 184 nM in assay [2] and 20 nM in assay [3].
